Measurements as given in PubChem BioAssay AID179 (DTP/NCI, 2004).
“And” between values parts separate entries of the source, which are not always exact repeats. Identical values can stand only once. The source made the active and inactive calls.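 How the source made its calls: active means compounds giving half or more protection of infected cells from virus-caused growth loss, again on retest; inactive means the rest.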

Test system: CEM cells HIV-1 protection, formazan growth assay
Test: NCI AIDS Antiviral Assay
Conditions: for IC50: measured here: growth of uninfected CEM cells
How it was run: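 Protection of CEM cells against HIV-1 measured as cell growth via soluble formazan read-out, with five concentrations tested on both infected and uninfected cells; failure to protect may reflect toxicity.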

Compound	EC50 [µM]	IC50	outcome
C[C@@H]1CC[C@@]2(OC1)O[C@H]1C[C@H]3[C@@H]4CC[C@H]5C[C@@H](OC6OC(CO)C(OC7OC(CO)C(O)C(OC8OCC(O)C(O)C8O)C7OC7OC(CO)C(O)C(O)C7O)C(O)C6O)[C@H](O)C[C@]5(C)[C@H]4CC[C@]3(C)[C@H]1[C@@H]2C (stereo not given in full)	> 2	1 µM	
COC(=O)CCCC(=O)C(=Nc1c(Cl)cccc1Cl)NNc1ccc(Cl)cc1	> 200	35.5 µM	
O=[N+]([O-])/C=C/c1cn(CCCCCCCCCCCCn2cc(/C=C/[N+](=O)[O-])c3ccccc32)c2ccccc12	> 100	> 100 µM	
OCCCN(CCO)CCN(CCCO)CCCO	> 200	> 200 µM	
O=C(N/C(=C\c1ccccc1)C1Nc2ccccc2C(=O)O1)c1ccccc1 (stereo not given)	> 200	17.4 µM	
O=c1cc2oc3cc(O)c(O)cc3c(-c3ccccc3)c-2cc1O	> 200	39.8 µM and 83.2 µM	
Cc1ccc2c3c(c(=O)oc2c1)[C@H](C)C[C@@](C)(CO)O3	> 200	178 µM	
O=S(=O)(O)OC1CCCCC1Nc1ccccc1 (stereo not given)			inactive
CC(=O)Nc1ccccc1S(=O)(=O)c1c(-c2c(C)c(Cl)c(C)c(Cl)c2C)noc1C	> 200	87.1 µM	
COc1ccc2nc3ccc(OC)cc3c(SCc3ccc([N+](=O)[O-])cc3)c2c1	> 200	> 200 µM	
N[C@H](CCC(=O)NCP(=O)(O)O)C(=O)O	> 200	> 200 µM	
O=S(=O)(CC#CCO)c1ccc2ccccc2c1			inactive
CCN(CC)C(=O)c1c(N2CCOCC2)cc(N(CC)CC)oc1=O	> 708	> 708 µM	
O=c1n(-c2ccccc2)c(=O)n2n1C1C=CC2C23C=CC12CCCC3 (stereo not given)	> 100	77.6 µM	
C/C=C/C=N/N(c1nnc(-c2ccccc2)c(-c2ccccc2)n1)S(=O)(=O)c1ccc(C)cc1	> 21.4	7.59 µM	
CCOC(=O)C1C(C(=O)OCC)N2c3ccccc3-c3cccnc3[C@@H]2[C@H]1C(=O)OCC (stereo not given in full)	> 100	95.5 µM	
CCC[CH2][Sn]([Cl])([CH2]CCC)[S]C(=S)NCCNC(=S)[S][Sn]([Cl])([CH2]CCC)[CH2]CCC	> 2	0.102 µM	
Oc1ccc(-c2c3ccccc3c(-c3ccc(OCCBr)cc3)c3ccccc23)cc1	> 100	> 100 µM	
O=S1(=O)CCCS(=O)(=O)C(c2ccccc2)=C1c1ccccc1	> 145	50.1 µM	
N=C1C=CC2C(=Nc3ccccc3[N+]2=O)N1Cc1ccncc1 (stereo not given)	> 22.4	21.4 µM	
CCN(CC)CCOc1ccc(/C=C(\C#N)c2ccc(OC)cc2)cc1	> 200	2.14 µM	

Compound	EC50 [µM]	IC50	outcome
COc1c2c(c(OC)c3c(=O)cc(C/C(=N/NC(=O)C[n+]4ccccc4)C(=O)Nc4cc(C)ccc4C)oc13)OCO2	> 30.9	> 30.9 µM	
Cc1cn(COCCCO[Si](C)(C)C(C)(C)C)c(=O)[nH]c1=O	112	174 µM	
Cc1cc(-c2ccc(N=Nc3ccc4c(S(=O)(=O)O)cc(S(=O)(=O)O)c(N)c4c3O)c(C)c2)ccc1N=Nc1ccc2c(S(=O)(=O)O)cc(S(=O)(=O)O)c(N)c2c1O	> 9.33		
CC1(C)/C(=N\O)C2(OS(=O)(=O)C(F)(F)F)CCC1C2 (stereo not given)	> 200	> 200 µM	
COC(=O)C1=C(C(=O)OC)SC(=C2C(=O)c3ccccc3-c3ccccc32)S1			inactive
[N-]=[N+]=C1C(=O)C2CC3CC(C2)CC1C3	> 191	> 191 µM	
CCCCNC1C2CCC(C)(C1O)C2(C)C (stereo not given)	> 200	174 µM	
CC12C(C(=O)O)C1(c1ccccc1)C2C(=O)O (stereo not given)	> 1070	> 1070 µM	
O=S(c1ccc(Cl)cc1)c1ccccc1C1=NCCN1 (stereo not given)	> 200	> 200 µM	
N#CC(=C1CCN(Cc2ccccc2)CC1)c1ccccc1	> 200	81.3 µM	
c1ccc2sc(SCN3CCCCC3)nc2c1	> 200	81.3 µM	
O=C(/C=C/c1ccc2c(c1)OCO2)NCc1ccco1	> 200	117 µM	
Cc1ccc(N=NC2S/C(=C(\C#N)c3nc4ccccc4[nH]3)N(c3ccccc3)C2=O)cc1 (stereo not given)	> 2.24	> 2.24 µM	
O=C1C2CCSCN2C(=O)N1c1ccccc1 (stereo not given)	> 40.7	> 40.7 µM	
OCCOCCO[P+]1(OCCOCCO)n2c3ccc2C(c2ccccc2)=C2C=CC(=N2)C(c2ccccc2)=c2ccc(n21)=C(c1ccccc1)C1=NC(=C3c2ccccc2)C=C1	> 100	0.0794 µM	
NC(CSS(=O)(=O)O)=NCc1cccs1	> 200	> 100 µM	
CC(C)CN1CC(=O)N2Cc3ccccc3CN2C(=O)C1	> 200	> 200 µM	
COC(=O)C1c2c(C)cc3n2C(C=CC3)C1C(=O)OC (stereo not given)	> 324	115 µM	
C=CCCN(C=O)CCC/C(=C/CCCC)[Si](C)(C)C	> 24.5	> 24.5 µM	
CC(=O)O[C@H]1CCC2[C@@H]3CC[C@]4(C)CC(=O)C=C[C@]4(C)C3CC[C@@]21C (stereo not given in full)			inactive
C=CC[P+](CC=C)(c1ccccc1)c1ccccc1	> 200	1.91 µM	

Compound	EC50 [µM]	IC50	outcome
CC1(C)N=C(C(=O)c2ccccc2)N(O)C1(O)c1ccccc1 (stereo not given)	> 200	135 µM	
COc1ccc(N/N=C2\CCOc3ccc(C)cc3C2=O)cc1	> 20	12 µM	
COCCN1C2=CCCCC2=Nc2c1nc(N)[nH]c2=O			inactive
N#CSCc1nc2ccc(Cl)cc2c(-c2ccccc2)[n+]1[O-]	> 55	8.91 µM	
CC1(C)OC2COC3([C@@H]4OC(C)(C)O[C@@H]4CO)OC(C)(C)OC3C2O1 (stereo not given in full)	> 200	> 200 µM	
NCP(=O)(O)OCC(=O)O			inactive
O=c1[nH]c(NCc2ccc(Cl)cc2)nc2nc[nH]c12	> 200	55 µM	
O=C1N(c2ccccc2)C2(O)C(=O)c3ccccc3C2(O)N1c1ccccc1 (stereo not given)	> 676	110 µM	
O=S(=O)(O)c1cc2cc(S(=O)(=O)O)c(O)cc2cc1O			inactive
CC1=CC(O)C(Br)C(C)(C)C12CCC(C)(Cl)C(Br)C2 (stereo not given)	> 200	25.1 µM	
O=C(O)CN1C(=O)c2cccc3cccc(c23)C1=O	> 200	> 200 µM	
Cc1cc(C)[n+]([O-])c(C)c1	> 1820	977 µM	
CCOC(=O)CN1C(=O)c2c(NC(=O)C(=O)O)cccc2S1(=O)=O	> 200	> 200 µM	
O=C(Nc1ccc(Cl)cc1C(F)(F)F)C(=O)Nn1c(=S)[nH]c2ccccc2c1=O	> 151	> 151 µM	
CCN(CC)CCNC(=O)c1nn(-c2ccc(Cl)cc2)c2c1CCc1cc(OC)ccc1-2	> 91.2	5.01 µM	
O=C(CC(c1ccccc1)C(Sc1ccccc1)(Sc1ccccc1)Sc1ccccc1)c1ccccc1 (stereo not given)	> 100	> 100 µM	
c1ccc(COc2ccc3[nH]c4c(ncc5[nH]c6ccccc6c54)c3c2)cc1			inactive
CC1=C[C@H]2O[C@@H]3[C@H](O)[C@@H](O)[C@](C)(C2(COC(=O)CCl)CC1)[C@@]31CO1 (stereo not given in full)	> 6.92	0.0178 µM	
C(=C1/CCCCC([n+]2ccccc2)=N1)/c1ccccc1			inactive
CCCCCCC1OC(C(=O)OCCCC)C(C(=O)OCCCC)O1 (stereo not given)	> 200	> 200 µM	
S=C1OC2C3C4CC5C3C(O1)C1C5C4C21 (stereo not given)			inactive
